Reference: ChEMBL document CHEMBL6182926, “Design, Synthesis, and Biological Activity Evaluation of Deuterated Diphenyl Azole Alcohol-Based CYP51 Inhibitors” (J Med Chem, 2025)
Converted amounts (≈) assume the structure as drawn. The source made the active and inactive calls. The calls are words filed in the database; no cut-off is given here.

Experiments:
Candida parapsilosis = assay: Antifungal activity against Candida parapsilosis GIM 2.190 assessed as inhibition of visible growth; type: functional; details: Lodderomyces parapsilosis
Cryptococcus neoformans [1] = assay: Antifungal activity against Cryptococcus neoformans CGMCC 2.3161 assessed as reduction in ergosterol at 8 ug/ml measured after 18 hrs incubation by gas chromatography-mass spectrometry (GCMS) analysis (reference value: 94.48%); type: functional; parameters: scale not given: the % may be the effect or the level left; details: dose 8 µg/ml
Nakaseomyces glabratus [2] = assay: Inhibition of biofilm formation in clinical isolate Candida glabrata assessed as inhibition of metabolic activity of biofilm measured after 24 hrs by XTT assay; type: functional
Cryptococcus neoformans [3] = assay: Antifungal activity against Cryptococcus neoformans CGMCC 2.3161 assessed as inhibition of visible growth; type: functional
Candida albicans [4] = assay: Antifungal activity against Candida albicans SC5314 assessed as reduction in other sterol at 4 ug/ml measured after 18 hrs incubation by gas chromatography-mass spectrometry (GCMS) analysis (reference value: 2.59%); type: functional; parameters: scale not given: the % may be the effect or the level left; details: dose 4 µg/ml
Cell membrane [5] = assay: Antifungal activity against Candida albicans SC5314 assessed as reduction in Eburicol at 4 ug/ml measured after 18 hrs incubation by gas chromatography-mass spectrometry (GCMS) analysis; type: subcellular; parameters: scale not given: the % may be the effect or the level left; details: dose 4.0 µg/ml
Candida albicans [6] = assay: Antifungal activity against Candida albicans CPCC 400616 assessed as inhibition of visible growth; type: functional
Cryptococcus neoformans [7] = assay: Antifungal activity against Cryptococcus neoformans CGMCC 2.3161 assessed as reduction in Obtusifoliol at 8 ug/ml measured after 18 hrs incubation by gas chromatography-mass spectrometry (GCMS) analysis; type: functional; parameters: scale not given: the % may be the effect or the level left; details: dose 8 µg/ml
Candida albicans [8] = assay: In vivo anti-resistant activity against fluconazole-resistant Candida albicans strain 17# infected in cyclophosphamide-immunosuppressed ICR mouse model assessed as reduction in fungal burden in kidney at 1 to 5 mg/kg, oral gavage for 5 days post infection; type: functional, organism-based; details: dose 1-5 mg/kg, time 5.0 day
Candida albicans [9] = assay: Antifungal activity against Candida albicans SC5314 assessed as reduction in Obtusifoliol at 4 ug/ml measured after 18 hrs incubation by gas chromatography-mass spectrometry (GCMS) analysis; type: functional; parameters: scale not given: the % may be the effect or the level left; details: dose 4 µg/ml
Candida albicans [10] = assay: Antifungal activity against Candida albicans SC 5314 assessed as inhibition of visible growth; type: functional
Aspergillus fumigatus = assay: Antifungal activity against Aspergillus fumigatus CGMCC 3.7795 assessed as inhibition of visible growth; type: functional
Candida albicans [11] = assay: Antifungal activity against Candida albicans SC5314 assessed as reduction in Lanosterol at 4 ug/ml measured after 18 hrs incubation by gas chromatography-mass spectrometry (GCMS) analysis; type: functional; parameters: scale not given: the % may be the effect or the level left; details: dose 4 µg/ml
Nakaseomyces glabratus [12] = assay: Fungicidal activity against Clinical isolate Candida glabrata assessed as concentration of colonies (< 5) measured after 48 hrs incubation; type: functional
Pichia kudriavzevii [13] = assay: Fungicidal activity against Candida krusei AS 2.1045 assessed as concentration of colonies (< 5) measured after 48 hrs incubation; type: functional
Candida albicans [14] = assay: Antifungal activity against Candida albicans SC5314 assessed as reduction in ergosterol at 4 ug/ml measured after 18 hrs incubation by gas chromatography-mass spectrometry (GCMS) analysis (reference value: 96.72%); type: functional; parameters: scale not given: the % may be the effect or the level left; details: dose 4 µg/ml
[15] = Cytotoxicity against human SH-SY5Y cells measured after 72 hrs by MTT assay; type: toxicity, cell-based
Pichia kudriavzevii [16] = assay: Antifungal activity against Candida krusei AS 2.1045 assessed as inhibition of visible growth; type: functional
Cryptococcus neoformans [17] = assay: Fungicidal activity against Cryptococcus neoformans CGMCC 2.3161 assessed as concentration of colonies (< 5) measured after 48 hrs incubation; type: functional
[18] = Cytotoxicity against human HUVEC cells measured after 72 hrs by MTT assay; type: toxicity, cell-based
Candida albicans [19] = assay: Antifungal activity against Candida albicans SC5314 assessed as reduction in 14alpha-methylsterols at 4 ug/ml measured after 18 hrs incubation by gas chromatography-mass spectrometry (GCMS) analysis (reference value: 0.69%); type: functional; parameters: scale not given: the % may be the effect or the level left; details: dose 4 µg/ml
Cryptococcus neoformans [20] = assay: Antifungal activity against Cryptococcus neoformans CGMCC 2.3161 assessed as reduction in other sterol at 8 ug/ml measured after 18 hrs incubation by gas chromatography-mass spectrometry (GCMS) analysis (reference value: 2.20%); type: functional; parameters: scale not given: the % may be the effect or the level left; details: dose 8 µg/ml
Nakaseomyces glabratus [21] = assay: Antifungal activity against Clinical isolate Candida glabrata assessed as inhibition of visible growth; type: functional
Candida tropicalis = assay: Antifungal activity against Candida tropicalis CGMCC 2.3739 assessed as inhibition of visible growth; type: functional
Cryptococcus neoformans [22] = assay: Inhibition of biofilm formation in Cryptococcus neoformans CGMCC 2.3161 assessed as inhibition of metabolic activity of biofilm measured after 24 hrs by XTT assay; type: functional
Cell membrane [23] = assay: Induction of loss of cell membrane integrity in Candida albicans SC5314 assessed as irregular cell morphology at 16 microg/ml measured after 48 hrs incubation by transmission electron microscopy; type: subcellular; details: dose 16.0 µg/ml
Cryptococcus neoformans [24] = assay: Antifungal activity against Cryptococcus neoformans CGMCC 2.3161 assessed as reduction in Eburicol at 8 ug/ml measured after 18 hrs incubation by gas chromatography-mass spectrometry (GCMS) analysis; type: functional; parameters: scale not given: the % may be the effect or the level left; details: dose 8 µg/ml

Structure (SMILES): OC(Cn1cncn1)(Cn1cncn1)c1ccc(F)cc1F [FLUCONAZOLE]
- MIC80 (Candida parapsilosis): 1 µg/mL (≈ 3.27 µM)
- Activity (Cryptococcus neoformans [1]): 86.73%
- MIC50 (Nakaseomyces glabratus [2]): 0.12 µg/mL (≈ 0.392 µM)
- MIC80 (Cryptococcus neoformans [3]): 16 µg/mL (≈ 52.2 µM)
- Activity (Candida albicans [4]): 13.1%
- Activity (Cell membrane [5]): 49.5%
- MIC80 (Candida albicans [6]): 0.5 µg/mL (≈ 1.63 µM)
- Activity (Cryptococcus neoformans [7]): 3.85%
- Activity (Candida albicans [8]): inactive
- Activity (Candida albicans [9]): 18.55%
- MIC80 (Candida albicans [10]): 0.25 µg/mL (≈ 0.816 µM)
- MIC80 (Aspergillus fumigatus): > 64 µg/mL
- Activity (Candida albicans [11]): 18.35%
- MFC (Nakaseomyces glabratus [12]): > 128 µg/mL
- MFC (Pichia kudriavzevii [13]): > 128 µg/mL
- Activity (Candida albicans [14]): 3.81%
- IC50 at 72 h [15]: > 100 µM
- MIC80 (Pichia kudriavzevii [16]): 8 µg/mL (≈ 26.1 µM)
- MFC (Cryptococcus neoformans [17]): > 128 µg/mL
- IC50 at 72 h [18]: > 40 µM
- Activity (Candida albicans [19]): 8.46%
- Activity (Cryptococcus neoformans [20]): 3.51%
- MIC80 (Nakaseomyces glabratus [21]): 32 µg/mL (≈ 104 µM)
- MIC80 (Candida tropicalis): 0.25 µg/mL (≈ 0.816 µM)
- MIC50 (Cryptococcus neoformans [22]): 32 µg/mL (≈ 104 µM)
- Activity (Cell membrane [23]): Active
- Activity (Cryptococcus neoformans [24]): 5.92%
